Test results as given in patent US11964988B2, “Fused heterocyclic compounds as RET kinase inhibitors” (ARRAY BIOPHARMA INC., priority 2018, dated 2024).
Substitutions are numbered along the chain they refer to.

Assays:
G810S mutant RET kinase = G810S mutant RET kinase (Homo sapiens, UniProt P07949, G810S); experiment: biochemical;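 further: HTRF KinEASE-TK kinase assay with recombinant enzyme, 1 h at 22 °C, dual-wavelength ratiometric read-out, percent of control (DMSO-only = 100, pre-quenched reaction = 0)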
[1] = target: T1, HEK-293 cells expressing a G810R mutant RET Kif5b-RET fusion protein (Homo sapiens, UniProt P07949, G810R); experiment: RET G810R Mutant Cell Assay (phospho-RET Tyr1062); type: cell-based; details: HEK-293 Kif5b-RET G810R, 1 hour incubation, phospho-RET normalized to GAPDH
T1 construct: KIF5B (N-terminal portion incl. coiled-coil); expressed in transfected cells; host or cells: HEK-293; the other entry of the earlier key: KIF5B (P33176, Kinesin-1 heavy chain)
T1 sequence (P07949 713-1063 G810R limits assumed): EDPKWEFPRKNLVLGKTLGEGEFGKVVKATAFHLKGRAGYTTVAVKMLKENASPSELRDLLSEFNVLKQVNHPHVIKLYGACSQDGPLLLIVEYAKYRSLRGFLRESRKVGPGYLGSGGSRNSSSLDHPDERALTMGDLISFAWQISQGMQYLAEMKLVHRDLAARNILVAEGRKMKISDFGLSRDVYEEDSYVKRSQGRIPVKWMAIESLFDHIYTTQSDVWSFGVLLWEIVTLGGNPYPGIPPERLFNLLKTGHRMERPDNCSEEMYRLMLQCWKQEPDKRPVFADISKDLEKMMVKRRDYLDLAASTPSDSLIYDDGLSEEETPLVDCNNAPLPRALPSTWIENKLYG
Procedure, shortened: (§1)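 Engineered HEK-293 cells were treated 1 h with compound in DMEM, 0.5% DMSO final, then fixed, permeabilized and immunostained for phospho-RET Tyr1062 and GAPDH. In-cell fluorescence pRET signal was normalized to GAPDH; IC50 taken from a 4-parameter logistic fit of percent of control at 50 POC.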

RET kinase Wild Type = RET kinase Wild Type (Homo sapiens, UniProt P07949); experiment: biochemical;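 further: HTRF kinase activity assay on RET enzyme, 1 h reaction at 22 °C, dual-wavelength readout as percent of control, DMSO-only wells as 100%, pre-quenched reactions as 0%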
RET kinase V804M = RET kinase V804M (Homo sapiens, UniProt P07949, V804M); experiment: RET Enzyme Assay (CisBio HTRF KinEASE-TK), V804M; type: biochemical; details: read-out: RET V804M Enz FRET IC50
[2] = target: T2, HEK-293 cells expressing a G810S mutant RET Kif5b-RET fusion protein (Homo sapiens, UniProt P07949, G810S); experiment: RET G810S Mutant Cell Assay (phospho-RET Tyr1062); type: cell-based; details: HEK-293 Kif5b-RET G810S, 1 hour incubation, phospho-RET normalized to GAPDH
T2 construct: KIF5B (N-terminal portion incl. coiled-coil); expressed in transfected cells; host or cells: HEK-293
T2 sequence (P07949 713-1063 G810S limits assumed): T1 sequence (P07949 713-1063 G810R limits assumed) with R98S
Procedure, shortened: as §1

[3] = target: T3, HEK-293 cells expressing a Kif5b-RET fusion protein (Homo sapiens, UniProt P07949); experiment: RET Cell Assay (phospho-RET Tyr1062); type: cell-based; details: HEK-293 Kif5b-RET, 1 hour incubation, phospho-RET normalized to GAPDH; read-out: KIF5B-RET pTYR1062 Cell IC50
T3 construct: KIF5B (N-terminal portion incl. coiled-coil); expressed in transfected cells; host or cells: HEK-293; the other entry of the earlier key: KIF5B (P33176, Kinesin-1 heavy chain)
T3 sequence (P07949 713-1063 limits assumed): T1 sequence (P07949 713-1063 G810R limits assumed) with R98G
Procedure, shortened: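 Kif5b-RET HEK-293 cells treated 1 hour with compound in DMEM (0.5% DMSO final), then fixed and immunostained for phospho-RET Tyr1062, normalized to GAPDH by infrared fluorescence. IC50 where the 4-parameter logistic fit of POC crosses 50.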

G810R mutant RET kinase = G810R mutant RET kinase (Homo sapiens, UniProt P07949, G810R); experiment: biochemical;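 further: HTRF KinEASE-TK enzymatic assay with 1 nM recombinant RET G810R, 1 h at 22 °C, dual-wavelength ratiometric readout, 100% control without compound, 0% from pre-quenched reactions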
Chain of G810R mutant RET kinase (P07949 29-1114 G810R): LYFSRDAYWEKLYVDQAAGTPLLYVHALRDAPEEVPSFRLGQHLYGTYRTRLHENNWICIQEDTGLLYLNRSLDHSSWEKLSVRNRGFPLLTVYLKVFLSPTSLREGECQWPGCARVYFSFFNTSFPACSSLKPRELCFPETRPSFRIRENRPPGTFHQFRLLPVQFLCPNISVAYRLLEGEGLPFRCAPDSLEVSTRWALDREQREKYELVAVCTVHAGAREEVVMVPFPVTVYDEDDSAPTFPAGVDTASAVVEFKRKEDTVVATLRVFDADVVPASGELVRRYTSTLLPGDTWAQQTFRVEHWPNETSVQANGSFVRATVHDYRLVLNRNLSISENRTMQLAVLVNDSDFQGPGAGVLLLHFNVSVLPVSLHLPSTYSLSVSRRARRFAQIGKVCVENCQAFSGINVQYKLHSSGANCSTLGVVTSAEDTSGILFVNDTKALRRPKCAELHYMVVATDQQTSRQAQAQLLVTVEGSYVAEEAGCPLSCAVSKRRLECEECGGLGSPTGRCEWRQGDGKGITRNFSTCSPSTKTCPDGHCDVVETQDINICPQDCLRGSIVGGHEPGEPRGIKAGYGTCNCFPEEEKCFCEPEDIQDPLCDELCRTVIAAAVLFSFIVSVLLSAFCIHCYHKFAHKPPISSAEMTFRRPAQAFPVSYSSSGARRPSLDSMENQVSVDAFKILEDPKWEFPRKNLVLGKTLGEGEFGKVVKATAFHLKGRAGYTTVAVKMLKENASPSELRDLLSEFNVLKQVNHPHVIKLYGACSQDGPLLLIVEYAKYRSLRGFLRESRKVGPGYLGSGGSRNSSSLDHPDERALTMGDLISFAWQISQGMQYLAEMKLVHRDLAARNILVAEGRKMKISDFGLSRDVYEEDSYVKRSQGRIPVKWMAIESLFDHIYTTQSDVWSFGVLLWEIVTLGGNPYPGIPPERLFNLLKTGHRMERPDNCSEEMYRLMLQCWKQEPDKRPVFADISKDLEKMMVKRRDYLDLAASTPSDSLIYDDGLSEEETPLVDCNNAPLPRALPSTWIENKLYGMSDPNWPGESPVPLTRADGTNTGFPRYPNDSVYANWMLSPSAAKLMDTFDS

Chain of G810S mutant RET kinase (P07949 29-1114 G810S): as the sequence (P07949 29-1114 G810R) above, with R782S counted along it
Chain of RET kinase Wild Type (P07949 29-1114): as the sequence (P07949 29-1114 G810R) above, with R782G counted along it
Chain of RET kinase V804M (P07949 29-1114 V804M): as the sequence (P07949 29-1114 G810R) above, with V776M, R782G counted along it

Row | IC50 (G810S mutant RET kinase) | IC50 [1] | IC50 (RET kinase Wild Type) | IC50 (RET kinase V804M) | IC50 [2] | IC50 [3] | IC50 (G810R mutant RET kinase) | Structure (SMILES)
1 | 297 nM | 53 nM | 62 nM | 6260 nM | 44 nM | 50 nM | 288 nM | CC(C)n1c2c(c3c(N)ncnc31)-c1cc3ccc(C(=O)Nc4ccn(CCN5CCOCC5)n4)cc3n1CCC2 [Example 88, 1-amino-5-isopropyl-N-(1-(2-morpholinoethyl)-1H-pyrazol-3-yl)-5,6,7,8-tetrahydropyrimido[5″,4″:4′,5′]pyrrolo[3′,2′: 3,4]azepino[1,2-a]indole-11-carboxamide]
2 | 108 nM | 439 nM | 61 nM | 211 nM | 352 nM | 72 nM | 118 nM | CC(C)n1c2c(c3c(N)ncnc31)-c1noc(C3CC3)c1[C@@H](O)[C@@H](C)C2 (relative stereo) [Example 63, (Cis)-11-amino-3-cyclopropyl-7-isopropyl-5-methyl-4,5,6,7-tetrahydroisoxazolo[4″,3″:6′,7′]cyclohepta[1′,2′:4,5]pyrrolo[2,3-d]pyrimidin-4-ol]
3 | 19 nM | 16 nM | 11 nM | 19 nM | 16 nM | 7 nM | 41 nM | Nc1ncnc2c1c1c(n2C2CCCC2)CC[C@@H](O)c2c-1noc2C1CC1 (single isomer, unassigned) [Example 125]
4 | 74 nM | 349 nM | 34 nM | 138 nM | 192 nM | 52 nM | 96 nM | CC(C)n1c2c(c3c(N)ncnc31)-c1noc(C3CC3)c1[C@@H](O)[C@H](C)C2 (relative stereo) [Example 62, (Trans)-11-amino-3-cyclopropyl-7-isopropyl-5-methyl-4,5,6,7-tetrahydroisoxazolo[4″,3″:6′,7′]cyclohepta[1′,2′:4,5]pyrrolo[2,3-d]pyrimidin-4-ol]
5 | 52 nM | 76 nM | 19 nM | 5490 nM | 39 nM | 11 nM | 94 nM | Cc1ccc2c(c1)cc1n2C(=O)NCc2c-1c1c(N)ncnc1n2C(C)C [Example 81, 1-amino-5-isopropyl-12-methyl-6,7-dihydropyrimido[5″,4″:4′,5′]pyrrolo[2′,3′: 5,6][1,3]diazepino[1,7-a]indol-8(5H)-one]
6 | 46 nM | 40 nM | 12 nM | 15 nM | 18 nM | 4 nM | 84 nM | CC1(n2c3c(c4c(N)ncnc42)-c2noc(C4CC4)c2[C@H](O)CC3)CC1 [Example 150, (R)-11-Amino-3-cyclopropyl-7-(1-methylcyclopropyl)-4,5,6,7-tetrahydroisoxazolo[4″,3″:6′,7′]cyclohepta[1′,2′:4,5]pyrrolo[2,3-d]pyrimidin-4-ol]
7 | 24 nM | 35 nM | 10 nM | 20 nM | 33 nM | 15 nM | 74 nM | Nc1ncnc2c1c1c(n2C2CCCC2)CCC(O)c2c-1noc2C1CC1 (stereo not shown) [Example 120, 11-Amino-7-cyclopentyl-3-cyclopropyl-4,5,6,7-tetrahydroisoxazolo[4″,3″:6′,7′]cyclohepta[1′,2′:4,5]pyrrolo[2,3-d]pyrimidin-4-ol]
8 | 159 nM | 186 nM | 23 nM | 66 nM | 181 nM | 49 nM | 64 nM | CO[C@@H]1CCc2c(c3c(N)ncnc3n2C(C)C)-c2noc(C3CC3)c21 (single isomer, unassigned) [Example 58]
9 | 9 nM | 29 nM | 6 nM | 30 nM | 26 nM | 5 nM | 15 nM | Nc1ncnc2c1c1c(n2C(CF)CF)CC[C@H](O)c2c-1noc2C1CC1 (single isomer, unassigned) [Example 126]
10 | 94 nM | 56 nM | 14 nM | 32 nM | 90 nM | 21 nM | 74 nM | C[C@@H](n1c2c(c3c(N)ncnc31)-c1noc(C3CC3)c1[C@H](O)CC2)C(F)(F)F (single isomer, unassigned) [Example 147, 2,2,2-trifluoroacetate]
11 | 116 nM | 98 nM | 26 nM | 87 nM | 68 nM | 63 nM | 43 nM | C[C@H](n1c2c(c3c(N)ncnc31)-c1noc(C3CC3)c1[C@@H](O)CC2)C(F)(F)F (single isomer, unassigned) [Example 146, 2,2,2-trifluoroacetate]
12 | 49 nM | 44 nM | 24 nM | 80 nM | 33 nM | 19 nM | 89 nM | Nc1ncnc2c1c1c(n2C2CCCC2)CCC(O)c2c-1noc2C1CC1 (single isomer, unassigned) [Example 124]
13 | 123 nM | 160 nM | 53 nM | 254 nM | 111 nM | 28 nM | 135 nM | CC(C)n1c2c(c3c(N)ncnc31)-c1noc(C3CC3)c1C(=O)N(C)C2 [Example 20, 11-amino-3-cyclopropyl-7-isopropyl-5-methyl-6,7-dihydroisoxazolo[4,3-c]pyrimido[5′,4′:4,5]pyrrolo[3,2-e]azepin-4(5H)-one]
14 | 75 nM | 206 nM | 131 nM | 99 nM | 108 nM | 125 nM | 80 nM | Nc1ncnc2c1c1c(n2-c2ccccc2)CCC(O)c2c-1noc2C1CC1 (stereo not shown) [Example 118, 11-Amino-3-cyclopropyl-7-phenyl-4,5,6,7-tetrahydroisoxazolo[4″,3″:6′,7′]cyclohepta[1′,2′:4,5]pyrrolo[2,3-d]pyrimidin-4-ol 2,2,2-trifluoroacetate]
15 | 133 nM | 621 nM | 43 nM | 163 nM | 290 nM | 45 nM | 64 nM | CC(C)n1c2c(c3c(N)ncnc31)-c1noc(C3CC3)c1[C@H](O)[C@@H](C)C2 (single isomer, unassigned) [Example 65]
16 | 215 nM | 262 nM | 45 nM | 202 nM | 184 nM | 53 nM | 103 nM | CC(C)n1c2c(c3c(N)ncnc31)-c1noc(C3CC3)c1C(=O)NC2 [Example 19, 11-amino-3-cyclopropyl-7-isopropyl-6,7-dihydroisoxazolo[4,3-c]pyrimido[5′,4′:4,5]pyrrolo[3,2-e]azepin-4(5H)-one 2,2,2-trifluoroacetate]
